Patent US20200062767A1, “SUBSTITUTED PYRROLIDINYL AND PIPERIDINYL PYRAZOLOPYRIDAZINE DERIVATIVES HAVING MULTIMODAL ACTIVITY AGAINST PAIN” (ESTEVE PHARMACEUTICALS, S.A., priority 2017, published 2020)

Assays:
[1] = target: Human norepinephrine transporter (NET) (Homo sapiens, UniProt P23975); assay: Binding assay to human norepinephrine transporter (NET); settings: expressed as Ki; [3H]-Nisoxetin, human NET enriched membranes
Description: Binding Assay to Human Norepinephrine Transporter (NET).
Human norepinephrine transporter (NET) enriched membranes (5 μg) were incubated with 5 nM of radiolabeled [3H]-Nisoxetin in assay buffer containing 50 mM Tris-HCl, 120 mM NaCl, 5 mM KCl, pH 7.4.
(§1) NSB (non specific binding) was measured by adding 10 μM of desipramine. The binding of the test compound was measured at five different concentrations. After 60 min incubation at 4° C., binding reaction was terminated by filtering through Multiscreen GF/C (Millipore) presoaked in 0.5% polyethyleneimine in Vacuum Manifold Station, followed by 3 washes with ice-cold filtration buffer containing 50 mM Tris-HCl, 0.9% NaCl, pH 7.4.
Filter plates were dried at 60° C. for 1 hour and 30 μL of scintillation cocktail were added to each well before radioactivity reading.
Readings were performed in a Trilux 1450 Microbeta radioactive counter (Perkin Elmer).

[2] = target: Human α2δ−1 subunit of Cav2.2 calcium channel (Homo sapiens, UniProt P54289); assay: Human α2δ−1 subunit of Cav2.2 calcium channel assay; settings: expressed as Ki; [3H]-Gabapentin, human α2δ−1 enriched membranes; read-out: Binding α2δ-1
Description: as §1, with “Human α2δ−1 Subunit of Cav2.2 Calcium Channel Assay Human α2δ−1 enriched membranes (2.5 μg) were incubated with 15 nM of radiolabeled [3H]-Gabapentin in assay buffer containing Hepes-KOH 10 mM, pH 7.4. NSB” for “NSB”, “pregabalin.” for “of desipramine.”, “27°” for “4°”, “Tris-HCl,” for “Tris-HCl, 0.9% NaCl,”
Filter plates were dried at 60° C. for 1 hour and 30 μL of scintillation cocktail were added to each well before radioactivity reading. Readings were performed in a Trilux 1450 Microbeta radioactive counter (Perkin Elmer).

Human norepinephrine transporter (NET), sequence (P23975 whole entry): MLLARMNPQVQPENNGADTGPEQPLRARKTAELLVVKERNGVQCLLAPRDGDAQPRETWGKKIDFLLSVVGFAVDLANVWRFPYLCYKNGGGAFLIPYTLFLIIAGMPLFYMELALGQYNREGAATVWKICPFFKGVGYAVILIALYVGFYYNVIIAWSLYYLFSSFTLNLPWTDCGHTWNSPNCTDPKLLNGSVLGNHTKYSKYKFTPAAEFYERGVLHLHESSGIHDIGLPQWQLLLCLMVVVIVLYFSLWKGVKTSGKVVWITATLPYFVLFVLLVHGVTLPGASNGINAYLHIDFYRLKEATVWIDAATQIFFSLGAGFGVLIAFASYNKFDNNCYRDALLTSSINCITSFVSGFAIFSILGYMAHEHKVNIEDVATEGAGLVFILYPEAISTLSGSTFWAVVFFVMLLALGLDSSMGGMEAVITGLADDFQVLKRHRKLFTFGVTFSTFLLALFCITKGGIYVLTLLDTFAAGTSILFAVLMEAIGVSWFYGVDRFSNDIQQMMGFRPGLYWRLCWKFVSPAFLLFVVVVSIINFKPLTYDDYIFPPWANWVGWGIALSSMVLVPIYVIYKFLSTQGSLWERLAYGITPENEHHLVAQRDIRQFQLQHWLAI
Human α2δ−1 subunit of Cav2.2 calcium channel, sequence (P54289 25-1103): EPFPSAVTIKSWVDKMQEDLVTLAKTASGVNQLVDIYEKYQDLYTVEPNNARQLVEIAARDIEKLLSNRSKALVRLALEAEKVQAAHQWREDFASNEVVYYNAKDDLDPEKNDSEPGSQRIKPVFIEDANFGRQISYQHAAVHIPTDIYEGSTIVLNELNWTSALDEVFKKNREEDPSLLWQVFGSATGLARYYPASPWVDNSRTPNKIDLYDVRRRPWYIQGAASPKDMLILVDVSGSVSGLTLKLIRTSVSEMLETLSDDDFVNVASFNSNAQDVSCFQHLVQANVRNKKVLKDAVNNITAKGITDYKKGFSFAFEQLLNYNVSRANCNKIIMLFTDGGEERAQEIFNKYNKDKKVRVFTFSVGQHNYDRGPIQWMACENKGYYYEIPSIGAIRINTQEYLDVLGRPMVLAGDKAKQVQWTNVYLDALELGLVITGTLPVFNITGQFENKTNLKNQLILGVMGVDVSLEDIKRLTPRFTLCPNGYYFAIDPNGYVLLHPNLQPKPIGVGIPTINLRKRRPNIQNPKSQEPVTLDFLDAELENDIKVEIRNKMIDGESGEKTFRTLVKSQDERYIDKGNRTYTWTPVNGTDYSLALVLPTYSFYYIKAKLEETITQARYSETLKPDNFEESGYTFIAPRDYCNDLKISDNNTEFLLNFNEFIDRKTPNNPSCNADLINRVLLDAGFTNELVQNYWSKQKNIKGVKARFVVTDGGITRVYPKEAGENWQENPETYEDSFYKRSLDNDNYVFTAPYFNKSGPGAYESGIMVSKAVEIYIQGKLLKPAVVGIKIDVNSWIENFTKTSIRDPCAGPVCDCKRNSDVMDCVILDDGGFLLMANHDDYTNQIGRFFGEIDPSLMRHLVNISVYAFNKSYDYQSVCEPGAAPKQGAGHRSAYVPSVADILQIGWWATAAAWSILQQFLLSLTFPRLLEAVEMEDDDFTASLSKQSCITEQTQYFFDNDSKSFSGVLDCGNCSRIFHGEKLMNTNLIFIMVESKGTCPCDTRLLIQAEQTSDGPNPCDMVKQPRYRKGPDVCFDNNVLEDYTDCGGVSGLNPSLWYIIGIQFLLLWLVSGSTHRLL

Compound | Ki [1] [nM] | Ki [2] [nM]
CCOc1ccc(-n2nc3c(N4CC[C@H](NCc5ccccc5)C4)nnc(C)c3c2C)c(F)c1 [Example 1, (S)-N-Benzyl-1-(2-(4-ethoxy-2-fluorophenyl)-3,4-dimethyl-2H-pyrazolo[3,4-d]pyridazin-7-yl)pyrrolidin-3-amine] | 100 to 500 | < 500
CCOc1ccc(-n2nc3c(N4CC[C@H](NCCc5ccccc5)C4)nnc(C)c3c2C)c(F)c1 [Example 2, (S)-1-(2-(4-ethoxy-2-fluorophenyl)-3,4-dimethyl-2H-pyrazolo[3,4-d]pyridazin-7-yl)-N-phenethylpyrrolidin-3-amine] | 500 to 1000 | < 500
CCOc1ccc(-n2nc3c(N4CC[C@H](NCc5cccc(O)c5)C4)nnc(C)c3c2C)c(F)c1 [Example 3, (S)-3-(((1-(2-(4-ethoxy-2-fluorophenyl)-3,4-dimethyl-2H-pyrazolo[3,4-d]pyridazin-7-yl)pyrrolidin-3-yl)amino)methyl)phenol] | 100 to 500 | < 500
CCOc1ccc(-n2nc3c(N4CC[C@H](NCc5ccccn5)C4)nnc(C)c3c2C)c(F)c1 [Example 4, (S)-1-(2-(4-ethoxy-2-fluorophenyl)-3,4-dimethyl-2H-pyrazolo[3,4-d]pyridazin-7-yl)-N-(pyridin-2-ylmethyl)pyrrolidin-3-amine] | ≥ 1000 | < 500
CCOc1ccc(-n2nc3c(N4CC[C@H](NCCc5ccc(F)cc5)C4)nnc(C)c3c2C)c(F)c1 [Example 5, (S)-1-(2-(4-ethoxy-2-fluorophenyl)-3,4-dimethyl-2H-pyrazolo[3,4-d]pyridazin-7-yl)-N-(4-fluorophenethyl)pyrrolidin-3-amine] | ≥ 1000 | < 500
CCOc1ccc(-n2nc3c(N4CC[C@H](NCc5cccc(OC)c5)C4)nnc(C)c3c2C)c(F)c1 [Example 6, (S)-1-(2-(4-ethoxy-2-fluorophenyl)-3,4-dimethyl-2H-pyrazolo[3,4-d]pyridazin-7-yl)-N-(3-methoxybenzyl)pyrrolidin-3-amine] | 500 to 1000 | < 500
CCOc1ccc(-n2nc3c(N4CC[C@H](NCc5ccc(F)c(F)c5)C4)nnc(C)c3c2C)c(F)c1 [Example 7, (S)-N-(3,4-difluorobenzyl)-1-(2-(4-ethoxy-2-fluorophenyl)-3,4-dimethyl-2H-pyrazolo[3,4-d]pyridazin-7-yl)pyrrolidin-3-amine] | < 100 | < 500
CCOc1ccc(-n2nc3c(N4CC[C@@H](NCc5cccc(O)c5)C4)nnc(C)c3c2C)c(F)c1 [Example 8, (R)-3-(((1-(2-(4-ethoxy-2-fluorophenyl)-3,4-dimethyl-2H-pyrazolo[3,4-d]pyridazin-7-yl)pyrrolidin-3-yl)amino)methyl)phenol] | 100 to 500 | < 500
CCOc1ccc(-n2nc3c(N4CC[C@H](NCc5ccccc5O)C4)nnc(C)c3c2C)c(F)c1 [Example 9, (S)-2-(((1-(2-(4-ethoxy-2-fluorophenyl)-3,4-dimethyl-2H-pyrazolo[3,4-d]pyridazin-7-yl)pyrrolidin-3-yl)amino)methyl)phenol] | 100 to 500 | < 500
CCOc1ccc(-n2nc3c(N4CC[C@@H](NCc5ccccc5)C4)nnc(C)c3c2C)c(F)c1 [Example 10, (R)-N-benzyl-1-(2-(4-ethoxy-2-fluorophenyl)-3,4-dimethyl-2H-pyrazolo[3,4-d]pyridazin-7-yl)pyrrolidin-3-amine] | 100 to 500 | < 500
CCOc1ccc(-n2nc3c(N4CC[C@H](NCc5cccnc5)C4)nnc(C)c3c2C)c(F)c1 [Example 11, (S)-1-(2-(4-ethoxy-2-fluorophenyl)-3,4-dimethyl-2H-pyrazolo[3,4-d]pyridazin-7-yl)-N-(pyridin-3-ylmethyl)pyrrolidin-3-amine] | 500 to 1000 | < 500
CCOc1ccc(-n2nc3c(N4CC[C@H](NCc5ccncc5)C4)nnc(C)c3c2C)c(F)c1 [Example 12, (S)-1-(2-(4-ethoxy-2-fluorophenyl)-3,4-dimethyl-2H-pyrazolo[3,4-d]pyridazin-7-yl)-N-(pyridin-4-ylmethyl)pyrrolidin-3-amine] | ≥ 1000 | < 500
CCOc1ccc(-n2nc3c(N4CC[C@H](NCc5ncccc5F)C4)nnc(C)c3c2C)c(F)c1 [Example 13, (S)-1-(2-(4-ethoxy-2-fluorophenyl)-3,4-dimethyl-2H-pyrazolo[3,4-d]pyridazin-7-yl)-N-((3-fluoropyridin-2-yl)methyl)pyrrolidin-3-amine] | 500 to 1000 | < 500
CCOc1ccc(-n2nc3c(N4CC[C@H](NCc5cncc(F)c5)C4)nnc(C)c3c2C)c(F)c1 [Example 14, (S)-1-(2-(4-ethoxy-2-fluorophenyl)-3,4-dimethyl-2H-pyrazolo[3,4-d]pyridazin-7-yl)-N-((5-fluoropyridin-3-yl)methyl)pyrrolidin-3-amine] | ≥ 1000 | ≥ 5000
CCOc1ccc(-n2nc3c(N4CC[C@H](N(C)Cc5cccc(O)c5)C4)nnc(C)c3c2C)c(F)c1 [Example 15, (S)-3-(((1-(2-(4-Ethoxy-2-fluorophenyl)-3,4-dimethyl-2H-pyrazolo[3,4-d]pyridazin-7-yl)pyrrolidin-3-yl)(methyl)amino)methyl)phenol] | ≥ 1000 | < 500
CCOc1ccc(-n2nc3c(N4CC[C@H](N(C)Cc5ccccc5)C4)nnc(C)c3c2C)c(F)c1 [Example 16, (S)-N-benzyl-1-(2-(4-ethoxy-2-fluorophenyl)-3,4-dimethyl-2H-pyrazolo[3,4-d]pyridazin-7-yl)-N-methylpyrrolidin-3-amine] | 500 to 1000 | < 500
CCOc1ccc(-n2nc3c(N4CCC[C@H](N(C)C)C4)nnc(C)c3c2C)c(F)c1 [Example 17, (S)-1-(2-(4-ethoxy-2-fluorophenyl)-3,4-dimethyl-2H-pyrazolo[3,4-d]pyridazin-7-yl)-N,N-dimethylpiperidin-3-amine] | ≥ 1000 | 500 to 5000
CCOc1ccc(-n2nc3c(N4CC[C@H](NC(=O)Cc5ccccn5)C4)nnc(C)c3c2C)c(F)c1 [Example 18, (S)-N-(1-(2-(4-Ethoxy-2-fluorophenyl)-3,4-dimethyl-2H-pyrazolo[3,4-d]pyridazin-7-yl)pyrrolidin-3-yl)-2-(pyridin-2-yl)acetamide] | ≥ 1000 | < 500
CCOc1ccc(-n2nc3c(N4CC[C@H](NC(=O)Cc5cccnc5)C4)nnc(C)c3c2C)c(F)c1 [Example 19, (S)-N-(1-(2-(4-ethoxy-2-fluorophenyl)-3,4-dimethyl-2H-pyrazolo[3,4-d]pyridazin-7-yl)pyrrolidin-3-yl)-2-(pyridin-3-yl)acetamide] | ≥ 1000 | < 500
